Where two headings read alike, the source gives them in different places.
What was measured:
Na^+ /K^+ ATPase = settings: cited from earlier work
diabetic animals = settings: cited from earlier work
[1] = system: NCC (lysis of IM-9 target cells); settings: for effect of removal of inhibitor on NCC activation (words): 90 minutes treatment, washed, E:T 40:1; for enhancement of destruction of IM-9 target cells (fold): over control, lower E:T ratios
Experimental: FIG. 4. Individual and combined effects of phosphatase inhibitors on NCC cytotoxicity, NCC (7×10^5 cells) were incubated with either media (.diamond.), vanadate (Δ) (5 mM). NaF (.smallcircle.) (20 mM), or both vanadate and NaF (.quadrature.) for the indicated time periods before addition to labeled IM-9 target cells.
FIG. 5. Effects of removal of Na3 VO4 on NCC activation. NCC were harvested, incubated for three hours, washed, counted and added to duplicate tubes containing either media alone or media containing 2.5, 5 and 10 mM vanadate. Following a 90 minutes incubation time, the cells were either washed and resuspended in media (closed circles) or added directly (open circles) to wells containing ^51 chromium labeled IM-9 target cells (E:T ratio 40:1).
FIG. 6. Effects of removal of NaF on NCC activation. NCC were harvested, incubated for three hours in media, washed, counted and added to duplicate tubes containing media alone or in the presence of 5, 10 and 20 mM NaF. Following a 90 minutes treatment time, NCC were either washed (closed circles) or added directly (open circles) to wells containing labeled IM-9 target cells (E:t ratio 40:1).
FIG. 7. Effects of Na3 VO4 on NCC with different levels of cytotoxicity. NCC were harvested from anterior kidneys of fish from three different sources. The cells were incubated in media for three hours, washed, counted and added to test tubes containing either media alone or media with 2.5, 5 and 10 mM vanadate. Following a two hours incubation time, the effectors were added to wells containing labeled IM-9 cells at a 40:1 E:T ratio.
FIG. 8. Effects of NaF on NCC with different levels of cytotoxicity. NCC were harvested from anterior kidneys of fish from three different sources. The cells were incubated in media for three hours, washed, counted and added to media or media with 5, 10 and 20 mM NaF. Following a two-hour incubation, NCC were added to wells containing ^51 chromium labeled IM-9 target cells for a final E:T ratio of 40:1.
(§1) A ^51 Cr release assay was used to determine cytotoxicity. Target cells at 1-2×10^6 cells/ml were labeled with 100 μCi of sodium chromate (Amersham, Arlington Heights, Ill.). NCC effector cells were treated as previously described [Evans et al. (1988) supra], centrifuged (500 g), and resuspended in media and added at different E:T ratios to the labeled target cells in round-bottomed 96-well microtiter plates. This mixture was incubated (25° C.) for 4-6 hours and 100 μl of each supernatant was removed to determine radioactivity (Beckman Biogamma II Counter; Beckman Instruments, Irvine, Calif.). The results are expressed as either percentage specific release (SR)=[(test release--spontaneous release)/(total release--spontaneous release)]×100; percent inhibition=[(percentage control SR--percentage test SR)/percentage control SR]×100; and percentage increase=(percentage test SR--percentage control SR)/percentage control SR.
NCC were obtained as previously described [Graves et al. (1984) supra]; Evans et al. (1984) supra]. […] NCC were then washed and resuspended at 20×10^6 cells/ml, and 35 μl aliquots were added to test tubes containing 315 μl media only (media control) or media containing the indicated treatments. After 2 hr incubation, the cells were mixed with ^51 Cr-labeled IM-9 target cells and incubated for 4-6 hours ([…]). Supernatants were harvested and cytotoxicity levels were calculated as previously described.
Membrane phosphorylation is maintained through a delicate equilibrium between cellular kinase and phosphatase activities.
In further studies, NCC were treated with different concentrations of protein phosphatase inhibitors for two hours and labeled IM-9 target cells were added for a four-hour microcytotoxicity assay (Table 8).

Edwardsiella ictaluri [2] = settings: approximately 10 μM to approximately 25 μM, 18-24 hours; FIG. 10; listed as sodium orthovanadate
[3] = system: NCC from stressed fish (lysis of IM-9 target cells); settings: 100:1, control 0.9
Experimental: as §1
A common observation in fish exposed to stress, e.g., toxicants, drastic temperature changes, handling, etc., is the temporary loss of NCC activity.

Edwardsiella ictaluri [4] = system: Edwardsiella ictaluri
Experimental: FIG. 11. Effects of treatment of catfish with vanadate prior to infection with E. ictaluri. In two different experiments (A and B), catfish were treated with vanadate (indicated concentrations) 48 hours prior to infection with Edwardsiella. Percent cumulative mortality for each treatment group is given. Numbers of fish were 12-15/group/experiment.
Thus, catfish were treated (by immersion) with 0.05 mM vanadate for 48 hours prior to infection with Edwardsiella ictaluri.

[5] = system: muscles and liver; cardiac performance; settings: rats; cited from earlier work
calcineurin = settings: cited from earlier work
[6] = system: NCC (lysis of IM-9 target cells); settings: 0.05 mM (50 μM), immersion, 10, 24, 48 hours
Experimental: FIG. 9. In vivo NCC responses to vanadate treatment. Catfish were acclimated in 10 gal tanks for 24 hours prior to treatment. Vanadate was added directly to the tanks and cytotoxicity assays of NCC from treated and control fish were conducted at 10, 24 and 48 hours post-treatment.
Fish were treated by immersion in 10 gal (static flow) tanks containing the appropriate inhibitor concentrations in 15 liters of dechlorinated water (19°-20° C.). All fish were acclimated to tank conditions 24 hours prior to treatment. Each tank housed twenty fish (approximately 4-5 inches in length). At 24 hour intervals 50% of the water was changed.
To determine the ability of vanadate to act in vivo to activate NCC responses, fish were treated by immersion with 0.050 mM vanadate and cytotoxicity was determined at 10, 24 and 48 hours post-treatment.

[7] = system: cellular carbohydrate biosynthetic pathways; settings: cited from earlier work
[8] = system: NCC in anterior kidney tissue; settings: for % NCC in anterior kidney tissue / Total cells/ml: 50 μM
[9] = system: human prostate gland phosphotyrosyl protein phosphatase; settings: cited from earlier work
protein phosphatase = settings: cited from earlier work

sodium orthovanadate
Na^+ /K^+ ATPase inhibition (Na^+ /K^+ ATPase): significantly inhibited | blood glucose levels in diabetic animals (diabetic animals; oral, 15 μM in drinking water): normalization of blood glucose levels in diabetic animals | time to reversal of effects after suspension of treatment (diabetic animals; rats): two | Percent Specific Release ([1]; 5 mM, E:T 10, media 39): 63% | Percent Specific Release ([1]; 5 mM, E:T 25, media 4): 29% | Percent Specific Release ([1]; 5 mM, E:T 50, media 21): 46% | Percent Specific Release ([1]; 10 mM, E:T 10, media 39): 62% | Percent Specific Release ([1]; 10 mM, E:T 25, media 4): 40% | Percent Specific Release ([1]; 10 mM, E:T 50, media 21): 49% | effect of removal of inhibitor on NCC activation (words) [1]: slightly reduced levels of NCC cytotoxicity | effect of removal of inhibitor on NCC activation (words) ([1]; listed as sodium vanadate): largely retained | enhancement of destruction of IM-9 target cells (fold) ([1]; listed as Sodium vanadate): approximately six- to eightfold | enhancement of destruction of IM-9 target cells (fold) ([1]; listed as sodium vanadate): as much as six- to eightfold | mortality of infected catfish (words) (Edwardsiella ictaluri [2]): mortality was reduced | Percent Specific Release (stressed fish) ([3]; Na3 VO4 5.0 mM): 9.9% | Percent Specific Release (stressed fish) ([3]; Na3 VO4 10.0 mM): 13.1% | reduction in mortality (Edwardsiella ictaluri [4]; 0.05 mM pretreatment 48 hours, FIG. 11A): 27% | reduced mortality (Edwardsiella ictaluri [4]; 0.05 mM pretreatment, 13-14 days post infection, FIG. 11B): 54% | mortality / resistance after pretreatment (words) (Edwardsiella ictaluri [4]; 0.05 mM, 48 hours prior to infection, listed as sodium orthovanadate): produced resistance in catfish against the Edwardsiella pathogen | survival at 28 days post-infection (Edwardsiella ictaluri [4]; experiment B): all treated catfish were still alive | cardiac performance [5]: improved cardiac performance | glucose transport into muscles and liver [5]: stimulated glucose transport into muscles and liver | calcineurin-mediated dephosphorylation (calcineurin): fluoride, but not vanadate inhibited | in vivo NCC cytotoxicity (words) ([6]; listed as orthovanadate): significantly increased cytotoxicity 48 hours post-treatment | in vivo NCC cytotoxicity (words) ([6]; listed as vanadate): large increases in cytotoxicity by 48 hours | glucose oxidation [7]: stimulation of glucose oxidation | glycogen synthetase activity [7]: stimulation of glycogen synthetase activity | insulin activity [7]: prolongation of insulin activity | insulin binding [7]: augmentation of insulin binding | % NCC in anterior kidney tissue ([8]; 3 hours post-treatment, control 60): 51% | Total cells/ml ([8]; 3 hours, control 3.2): 3.1 cells/ml × 10^0 | Total cells/ml ([8]; 24 hours, control 2.6): 2.8 cells/ml × 10^0 | % NCC in anterior kidney tissue ([8]; 24 hours, control 55): 60% | Total cells/ml ([8]; 48 hours, control 2.1): 3.5 cells/ml × 10^0 | % NCC in anterior kidney tissue ([8]; 48 hours, control 52): 66% | Total cells/ml ([8]; 72 hours, control 2.3): 3.1 cells/ml × 10^0 | % NCC in anterior kidney tissue ([8]; 72 hours, control 70): 72% | Total cells/ml ([8]; 96 hours, control 3.6): 1.6 cells/ml × 10^0 | % NCC in anterior kidney tissue ([8]; 96 hours, control 61): 78% | effect on total number of cells and percentage NCC in anterior kidney tissue ([8]; in vivo): not due to fluctuations in the total number of cells nor in the percentage of NCC | human prostate gland phosphotyrosyl protein phosphatase [9]: fluoride, but not vanadate inhibited human prostate gland phosphotyrosyl protein phosphatase | protein phosphatase activity (protein phosphatase): vanadate but not fluoride inhibited protein phosphatase activity

— patent US5593678A, “Protection of teleost fish” (University of Georgia Research Foundation, priority 1994, dated 1997)
